Source: PubChem BioAssay (NCI)
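Briefly, cells in 96-well plates were exposed to five compound concentrations for 48 h, and endpoints were estimated by linear interpolation. TGI marks complete inhibition of growth.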

Legend:
Experiment in all cases: NCI anticancer screen, dose series, 48 h
[1] = tested on: CCRF-CEM leukemia
[2] = tested on: 786-0 renal
[3] = tested on: UO-31 renal
[4] = tested on: SK-OV-3 ovarian
[5] = tested on: MOLT-4 leukemia
[6] = tested on: SF-295 CNS
[7] = tested on: SK-MEL-5 melanoma
[8] = tested on: DU-145 prostate
[9] = tested on: NCI-H460 lung
[10] = tested on: MDA-MB-435
[11] = tested on: UACC-257 melanoma
[12] = tested on: RPMI-8226 leukemia
[13] = tested on: SW-620 colon
[14] = tested on: COLO 205 colon
[15] = tested on: NCI/ADR-RES ovarian
[16] = tested on: HOP-62 NSCLC
[17] = tested on: OVCAR-4 ovarian
[18] = tested on: OVCAR-8 ovarian
[19] = tested on: HCT-15 colon
[20] = tested on: NCI-H226 lung
[21] = tested on: SN12C renal
[22] = tested on: K-562 leukemia
[23] = tested on: HCT-116 colon
[24] = tested on: EKVX NSCLC
[25] = tested on: M14 melanoma
[26] = tested on: IGROV1 ovarian
[27] = tested on: U251 CNS
[28] = tested on: UACC-62 melanoma
[29] = tested on: LOX IMVI melanoma
[30] = tested on: PC-3 prostate
[31] = tested on: OVCAR-5 ovarian
[32] = tested on: SF-268 CNS
[33] = tested on: TK-10 renal
[34] = tested on: NCI-H522 lung
[35] = tested on: SK-MEL-2 melanoma
[36] = tested on: HT29 colon
[37] = tested on: RXF 393 renal
[38] = tested on: MDA-N
[39] = tested on: A498 renal
[40] = tested on: MDA-MB-231 breast
[41] = tested on: OVCAR-3 ovarian
[42] = tested on: HS 578T breast
[43] = tested on: NCI-H23 lung
[44] = tested on: ACHN renal
[45] = tested on: SNB-19 CNS
[46] = tested on: HCC-2998 colon
[47] = tested on: T-47D breast
[48] = tested on: BT-549 breast
[49] = tested on: KM12 colon
[50] = tested on: A549 NSCLC
[51] = tested on: HL-60(TB) leukemia
[52] = tested on: HOP-92 NSCLC
[53] = tested on: CAKI-1 renal
[54] = tested on: SK-MEL-28 melanoma
[55] = tested on: SF-539 CNS
[56] = tested on: MALME-3M melanoma
[57] = tested on: MCF7 breast

Measured: TGI

CCCCCc1cccc(=O)o1
> 100 µM: all assays above
